The source of these data is article PMC12055656, “Screening the Pandemic Response Box identifies novel ligands of the Staphylococcus aureus protein arginine kinase, McsB” (Molecular Biology Reports, 2025).

Assay [1] concerns the target T1, Staphylococcus aureus McsB (Staphylococcus aureus, UniProt Q2G0P6).
T1 construct: full length, His-tagged, pET-28a(+), expressed in E. coli BL21(DE3), Ni-NTA purified, ~42 kDa; tag kept (anti-His blot); E. coli lysate containing it used for CETSA
On the set-up: CETSA, anti-His western blot, shift of McsB aggregation temperature. Particulars: CETSA, aggregation temperature shift; binder.

Assay [2] deals with T1, Staphylococcus aureus McsB. The experiment in a line: biochemical. Particulars: TSA, purified McsB. On the set-up: Thermal shift assay (SYPRO Orange) of purified His-tagged McsB, melting temperature shift versus DMSO. How it is done: The thermal shift assay (TSA) was performed by incubating 0.1 µg/µl of purified McsB in assay buffer (50 mM sodium phosphate, 300 mM NaCl, pH 7.4) with 10X SYPRO Orange fluorescent dye (ThermoFisher Scientific, USA) in a final reaction volume of 20 µl. For primary screening, compounds from the Pandemic Response Box were tested in a pooled format (10 compounds per pool at 10 µM each, 40 pools total). Each pool was incubated with the protein-dye mixture for 1 h at 4 °C, followed by thermal denaturation (25–99 °C, at a ramp rate of 0.5 °C/s). Fluorescence was monitored at 470/586 nm (excitation/emission) using a QuantStudio 5 Real-Time PCR System (Applied Biosystems, ThermoFisher Scientific, USA). Compounds from pools that induced a significant increase in McsB melting temperature (Tm) relative to a DMSO control– indicating engagement with the target protein– were further evaluated individually at 10 µM. All Tm values were determined from derivative curves (dF/dT) using Protein Thermal Shift Software v1.4 (ThermoFisher Scientific, USA) and represent the average of at least three independent replicates (n ≥ 3). Recombinant McsB was expressed in E. coli BL21(DE3) cells and purified using Ni-NTA resin. SDS-PAGE and western blot analysis confirmed the isolation of a ~ 42 kDa His-tagged protein (Fig. 1), consistent with previous reports. The Pandemic Response Box was divided into 40 pools containing 10 compounds each and screened for stabilizing ligands of the purified McsB using TSA. Three groups- B4, C3 and E3- produced the most pronounced increases in McsB melting temperature, elevating it from 54.5 °C to 63.1, 64.0 and 62.8 °C, respectively (Fig. 2A). To identify the active compounds, we screened the 30 individual compounds from these pools, and found nine compounds that increased McsB melting temperature by 0.5–1.2 °C (Fig. 2B and C). Of these, seven induced statistically significant shifts, with MMV1593539 yielding the greatest stabilization (ΔTm = 1.2 ± 0.1 °C, p < 0.0001).

T1 sequence (Q2G0P6 whole entry): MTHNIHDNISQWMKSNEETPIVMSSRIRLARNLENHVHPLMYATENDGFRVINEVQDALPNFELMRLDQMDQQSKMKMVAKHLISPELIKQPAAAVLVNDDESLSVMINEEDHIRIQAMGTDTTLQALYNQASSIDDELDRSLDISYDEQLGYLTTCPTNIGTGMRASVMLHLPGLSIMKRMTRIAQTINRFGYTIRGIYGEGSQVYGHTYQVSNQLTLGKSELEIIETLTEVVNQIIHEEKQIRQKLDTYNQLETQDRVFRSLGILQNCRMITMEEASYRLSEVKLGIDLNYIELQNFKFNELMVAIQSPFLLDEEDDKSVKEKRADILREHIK

The ΔTm is the shift of the melting midpoint relative to a reference. In the case of `CCCC(=O)OCCc1ccccc1` [MMV1578899, 2-phenylethyl butanoate 2-phenylethyl butanoate], in assay [1], the ΔTagg was found to be 0.78 ± 0.339 °C. Further, the ΔTm at 10 µM in assay [2] is 0.9 ± 0.412 °C.
Take `Nc1nc2c(Cc3cccnc3)c[nH]c2c(=O)[nH]1` [MMV1782355]: the ΔTagg in assay [1] was found to be 0.63 ± 0.54 °C. For the same compound, the ΔTm at 10 µM in assay [2] stood at 0.677 ± 0.098 °C.
`Cn1cc(NC(=O)c2cc(NC(=O)c3ccc(/C=C/c4cnc5ccccc5c4)cc3)cn2C)cc1C(=O)NCCN1CCOCC1` [MMV1634391]: in assay [2], the ΔTm at 10 µM was determined as 0.473 ± 0.374 °C.
Still for that read-out and setting: the result for `Nc1nc(-c2ccccc2)nc2[nH]nc(Nc3ccc(C(F)(F)F)cc3)c12` [MMV1633968, 6-phenyl-3-N-[4-(trifluoromethyl)phenyl]-1H-pyrazolo[3,4-d]pyrimidine-3,4-diamine] reads 0.78 ± 0.081 °C.
